Series [1] has as its system WA09 human embryonic stem (hES) cells. Briefly: PLS-DA prediction of teratogenicity from secretome of treated hES cells (Example 9). Particulars: DevTox pharmaceutical.
Source text: These included 11 known teratogens and 11 known non-teratogens. The current model is based on the mean fold change (treatment versus its associated intra-experimental control) of 15 metabolites common among the secretome of hES cells treated with pharmaceutical agents and unknown chemical compounds.
The test system of another series is hESCs. Briefly: Arginine / ADMA fold change ratio (integrated EICs) in dosed hESCs vs controls. The note with it: for Arg fold change/ADMA fold change: EIC areas, controls vs. dosed. On the procedure: All tested chemicals were purchased from Sigma-Aldrich (St. Louis, Mo.). Cells were dosed with drugs at a concentration equivalent to their published serum circulating therapeutic dosages. Dosing was performed on hESCs in 6-well plates in triplicate, i.e. three wells per plate. The plates were dosed in triplicate, so there were a total of nine dosed wells. In parallel, there were nine “control” wells, in which hESCs were cultured with mTeSR1 containing no drug, and three wells containing Matrigel with mTeSR1 medium without hESCs that served as medium controls. Lastly, three wells of dosed medium controls were prepared, containing Matrigel, mTeSR1 and drug, but no hESCs (FIG. 1). These medium controls provided baseline mass spectral data. On the first day of dosage, the determined concentration of drug was dissolved in mTeSR1, and then 2.5 mL of this solution was added to each dosed well of hESCs. Each day, for four days, the medium was removed and new dosed medium was added. On the fourth day, the medium was removed and added to acetonitrile to make a 40% acetonitrile solution, as outlined in the Sample Preparation section below.
Mass spectrometry was performed using an Agilent QTOF LC/MS system consisting of a G6520AA QTOF high resolution mass spectrometer capable of exact mass MS and MS/MS. In order to facilitate separation of small molecules with a wide range of polarity and to allow increased retention of hydrophilic species, Hydrophilic Interaction Liquid Chromatography (Alpert 1990) was employed. Each sample was run for 30 minutes with the gradient shown in Table 3 at a flow rate of 0.5 mL/min, using 0.1% formic acid in water (Solvent A) and 0.1% formic acid in acetonitrile (Solvent B). Electrospray ionization was employed using a dual ESI source, with an Agilent isocratic pump continuously delivering an internal mass reference solution into the source at approx. 0.01 mL/min. The mass range of the instrument was set to 100-1700 Da. A Phenomenex Luna HILIC column with dimensions 3×100 mm 3 μm particle size was used and maintained at 30° C. 5 μl of each sample was injected. Data acquisition was performed with Agilent MassHunter using high-resolution exact mass conditions.
Valproate is known to cause neural tube defects (DiLiberti et al. 1984) while nitric oxide synthase activity is essential for neural tube closure (Nachmany et al. 2006).

Where [2] appears, read: high dose (H = 10x circulating dose).
Where [3] appears, read: low dose (L = 0.1x circulating dose).

Where two headings read alike, the source gives them in different places.

With `O=C1O[C@H]([C@@H](O)CO)C(O)=C1O` [Ascorbic Acid], in series [1] (setting [2]), the “% Non (PLS-DA class probability non-teratogen)” value (from here on “% Non”) is reported as 0.57, the “% Ter (PLS-DA class probability teratogen)” value (from here on “% Ter”) is recorded as 0.43, the “Confidence (difference between class probabilities)” value is listed as 0.14 and the Prediction result is “Non”. For the same compound, in series [1] (setting [3]), the “% Non” value is recorded as 0.57, the “% Ter” value is recorded as 0.43, the “Confidence (difference between class probabilities)” value was 0.14 and the Prediction entry is “Non”. Besides, in the series with hESCs, the “Arg/ADMA Prediction” value is reported as “Ter”, the “Outcome of the Arg/ADMA metrics for teratogenicity” value is listed as “false positives for teratogenicity” and the “Arg fold change/ADMA fold change” value is 1.28.
Turning to `CC(=O)Oc1ccccc1C(=O)O` [Aspirin], in the series on hESCs, the “Arg fold change/ADMA fold change” value is on record as 1.07.
Consider `Cn1c(=O)c2c(ncn2C)n(C)c1=O` [Caffeine], for which, in series [1] (setting [2]), the “% Non” value was 0.53, the “% Ter” value is recorded as 0.47 and the “Confidence (difference between class probabilities)” value was 0.06. Moreover, in series [1] (setting [3]), the “% Non” value is 0.58, the “% Ter” value is 0.42 and the “Confidence (difference between class probabilities)” value is on record as 0.16.
Consider `CN(C)CCOC(c1ccccc1)c1ccccc1` [Diphenhydramine], for which, in series [1] (setting [2]), the “% Non” value is listed as 0.73, the “% Ter” value was 0.27, the “Confidence (difference between class probabilities)” value is given as 0.46 and the Prediction result is given as “Non”. Also, in series [1] (setting [3]), the “% Non” value is 0.76, the “% Ter” value was 0.24, the “Confidence (difference between class probabilities)” value is reported as 0.52 and the Prediction entry was “Non”.
As to `Nc1nc2ncc(CNc3ccc(C(=O)N[C@@H](CCC(=O)O)C(=O)O)cc3)nc2c(=O)[nH]1` [Folic Acid], in series [1] (setting [2]), the “% Non” value was 0.59, the “% Ter” value is recorded as 0.41, the “Confidence (difference between class probabilities)” value is recorded as 0.18 and the Prediction entry is given as “Non”. In addition, in series [1] (setting [3]), the “% Non” value is listed as 0.59, the “% Ter” value is given as 0.41, the “Confidence (difference between class probabilities)” value is 0.18 and the Prediction result was “Non”. Also, the “Arg fold change/ADMA fold change” value with hESCs is 1.08.
For the compound `NNC(=O)c1ccncc1` [Isoniazid], in series [1] (setting [2]), the “% Non” value was 0.59, the “% Ter” value is listed as 0.41, the “Confidence (difference between class probabilities)” value is 0.18 and the Prediction result is on record as “Non”. Further, in series [1] (setting [3]), the “% Non” value is listed as 0.76, the “% Ter” value is listed as 0.24, the “Confidence (difference between class probabilities)” value is 0.52 and the Prediction result is “Non”. Besides, the “Arg fold change/ADMA fold change” value with hESCs came to 0.94.
As to `N[C@@H](Cc1cc(I)c(Oc2cc(I)c(O)c(I)c2)c(I)c1)C(=O)O` [Levothyroxine], in series [1] (setting [2]), the “% Non” value is reported as 0.59, the “% Ter” value is given as 0.41, the “Confidence (difference between class probabilities)” value is listed as 0.18 and the Prediction entry was “Non”. Also, in series [1] (setting [3]), the “% Non” value is listed as 0.69, the “% Ter” value was 0.31, the “Confidence (difference between class probabilities)” value is 0.38 and the Prediction result is given as “Non”. The “Arg fold change/ADMA fold change” value in the series with hESCs was determined as 1.03. Besides, the “Arg/ADMA Prediction” value with hESCs (from fold change ratio) is “Non (Smaller fold change ratios (between 0.9 and 1.1) show a good correlation with non-teratogens)”.
As for `CC1(C)S[C@@H]2[C@H](NC(=O)Cc3ccccc3)C(=O)N2[C@H]1C(=O)O` [Penicillin G], in the series with hESCs, the “Arg fold change/ADMA fold change” value came to 0.96. Besides, the “Arg/ADMA Prediction” value in the series with hESCs (from fold change ratio) was “Non (Smaller fold change ratios (between 0.9 and 1.1) show a good correlation with non-teratogens)”.
Turning to `CC1(C)S[C@@H]2[C@H](NC(=O)Cc3ccccc3)C(=O)N2[C@H]1C(=O)O` [PenicillinG], in series [1] (setting [2]), the “% Non” value was 0.57, the “% Ter” value was 0.43, the “Confidence (difference between class probabilities)” value was 0.14 and the Prediction result is listed as “Non”. For the same compound, in series [1] (setting [3]), the “% Non” value was 0.55, the “% Ter” value is 0.45, the “Confidence (difference between class probabilities)” value was 0.1 and the Prediction entry is listed as “Non”.
`CC1=C(/C=C/C(C)=C/C=C/C(C)=C/C(=O)O)C(C)(C)CCC1` [Retinoic Acid]: in the series on hESCs, the “Arg/ADMA Prediction” value is recorded as “Ter” and the “Arg fold change/ADMA fold change” value came out at 0.48.
As to `CC1=C(/C=C/C(C)=C/C=C/C(C)=C/C(=O)O)C(C)(C)CCC1` [RetinoicAcid], in series [1] (setting [2]), the “% Non” value is reported as 0.3, the “% Ter” value was 0.7, the “Confidence (difference between class probabilities)” value is listed as 0.4 and the Prediction entry is given as “Ter”. Moreover, in series [1] (setting [3]), the “% Non” value was 0.3, the “% Ter” value was 0.7, the “Confidence (difference between class probabilities)” value is on record as 0.4 and the Prediction result is “Ter”.
Turning to `O=C1NS(=O)(=O)c2ccccc21` [Saccharin], in series [1] (setting [2]), the “% Non” value is on record as 0.8, the “% Ter” value was 0.2, the “Confidence (difference between class probabilities)” value is 0.6 and the Prediction entry is “Non”. In series [1] (setting [3]), the “% Non” value was 0.75, the “% Ter” value is 0.25, the “Confidence (difference between class probabilities)” value was 0.5 and the Prediction result was “Non”.
Regarding `CCCC(CCC)C(=O)O` [VPA], in series [1] (setting [2]), the “% Non” value is listed as 0.34, the “% Ter” value was 0.66, the “Confidence (difference between class probabilities)” value was 0.32 and the Prediction result is on record as “Ter”. Besides, in series [1] (setting [3]), the “% Non” value is on record as 0.43, the “% Ter” value is on record as 0.57, the “Confidence (difference between class probabilities)” value is 0.14 and the Prediction result is on record as “Ter”.

These data come from patent US8703424B2, “Predicting human developmental toxicity of pharmaceuticals using human stem-like cells and metabolomics” (Stemina Biomarker Discovery, Inc., priority 2010, dated 2014).
